In patent US12679878B2, “CRF2 receptor agonists and their use in therapy” (SANOFI, priority 2020, dated 2026) one finds Emax and EC50 data, which are given here for 5 compounds.

The Emax is the size of the effect at its maximum, as opposed to the concentration needed. For orientation: EC50 means the concentration giving half of the maximal effect.

The target in assay [1] is T1, CRF1R receptor (Homo sapiens, UniProt P34998).
T1 construct: host or cells: CHO-K1 clone 2
T1 sequence (P34998 24-415): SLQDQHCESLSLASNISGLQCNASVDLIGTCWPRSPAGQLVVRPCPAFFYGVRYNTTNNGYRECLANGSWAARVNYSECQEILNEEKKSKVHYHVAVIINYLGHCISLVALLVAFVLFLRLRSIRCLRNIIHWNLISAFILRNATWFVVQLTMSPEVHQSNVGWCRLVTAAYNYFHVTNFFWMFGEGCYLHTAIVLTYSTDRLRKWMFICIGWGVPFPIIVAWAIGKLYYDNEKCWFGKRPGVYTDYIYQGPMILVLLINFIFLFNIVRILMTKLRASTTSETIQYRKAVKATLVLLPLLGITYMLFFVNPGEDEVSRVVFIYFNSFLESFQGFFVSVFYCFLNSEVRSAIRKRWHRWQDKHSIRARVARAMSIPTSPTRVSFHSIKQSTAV
Kind of assay: cAMP activity at anti-target CRF1R, CHO-K1 cell line clone 2 (Example 19.10). It is filed as cell-based. Conditions: CRF1R CHO-K1 clone 2; for Emax: 100% = Sauvagine at 100 nM; for EC50: 0% HSA, read-out: EC50 [nM] 0% HSA. The procedure:
The CRF1R-overexpression CHO-K1 cell line clone 2 was purchased from PerkinElmer.
Cells were grown in a 10 cm dish at 37° C./5% CO2 in medium (F12 (Hams)/10% FBS/400 μg/ml G418) to near confluence. At that stage, cells were harvested, resuspended to 10 million/mL in culture medium without G418 and with 10% DMSO. 1 mL vial aliquots were slowly frozen to -80° C. in isopropanol and then transferred in liquid nitrogen for storage. These vials were used to run the experiment following the procedure reported 10 in the previous paragraph, except for the compound used in the control well to define the 100% activation (Sauvagine at 100 nM)

The target of assay [2] is T2, human CRF2α receptor (Homo sapiens, UniProt Q13324).
T2 construct: expressed in transfected cells; host or cells: TeloHEAC
T2 sequence (Q13324 1-411): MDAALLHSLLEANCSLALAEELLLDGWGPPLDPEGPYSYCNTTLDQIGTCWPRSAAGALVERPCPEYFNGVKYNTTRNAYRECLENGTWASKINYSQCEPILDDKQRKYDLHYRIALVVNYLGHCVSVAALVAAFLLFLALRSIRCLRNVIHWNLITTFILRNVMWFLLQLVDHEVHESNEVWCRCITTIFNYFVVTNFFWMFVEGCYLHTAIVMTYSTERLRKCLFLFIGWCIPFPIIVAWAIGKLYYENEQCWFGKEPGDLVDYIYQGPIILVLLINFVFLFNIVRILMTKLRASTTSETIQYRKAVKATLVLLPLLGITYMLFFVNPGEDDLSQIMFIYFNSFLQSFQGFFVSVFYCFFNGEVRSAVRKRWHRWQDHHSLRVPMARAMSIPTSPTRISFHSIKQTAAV
As to the kind of experiment: cAMP agonism at human CRF2 α receptor in TeloHEAC cells (Example 7). The format is cell-based. As to conditions: cAMP HTRF, TeloHEAC cells stably expressing human CRF2 α, 0% HSA; read-out: EC50 [nM], 0% HSA. The method in brief: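 Cryopreserved cells are thawed, washed and resuspended in IBMX-containing (2 mM) HEPES-buffered HBSS with or without 0.1% HSA. Compound incubation runs 30 min at room temperature with 2000 cells per well, then cAMP is measured by time-resolved FRET. Potency is expressed as EC50, efficacy relative to urocortin 2 at 1000 nM.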

The structures appear in SMILES notation. Starred links: 1 amine or outer side, 2 acyl side, 3 side chain; linkers in the order of their positions; H or OH if unused. Non-standard residues stand in square brackets, D forms with d. Residues, ends and D or L forms follow the SMILES beside them. Groups on a side chain read outwards from the residue. *: point of attachment. C20 diacid = O=C(O)CCCCCCCCCCCCCCCCCCC(=O)*; C18 diacid = O=C(O)CCCCCCCCCCCCCCCCC(=O)*; γGlu = O=C(O)[C@H](CCC(=O)[*:2])N[*:1]; Palmitoyl = CCCCCCCCCCCCCCCC(=O)*; AEEA = NCCOCCOCC(=O)O; Aib = CC(C)(N)C(=O)O

For `CC[C@H](C)[C@H](N)C(=O)N[C@H](C(=O)N[C@@H](CC(C)C)C(=O)N[C@@H](CO)C(=O)N[C@@H](CC(C)C)C(=O)N[C@@H](CC(=O)O)C(=O)N[C@@H](C(=O)N1CCC[C@H]1C(=O)N[C@H](C(=O)N[C@@H](CCCCN)C(=O)N[C@@H](CC(C)C)C(=O)N[C@@H](CCCCNC(=O)COCCOCCNC(=O)COCCOCCNC(=O)CC[C@H](NC(=O)CCCCCCCCCCCCCCCCCCC(=O)O)C(=O)O)C(=O)N[C@@H](CCCCN)C(=O)N[C@@H](CCCCN)C(=O)N[C@@H](CC(C)C)C(=O)N[C@@H](CC(C)C)C(=O)N[C@@H](CCCCN)C(=O)N[C@@H](CCC(N)=O)C(=O)N[C@@H](CCC(=O)O)C(=O)N[C@@H](CCCNC(=N)N)C(=O)N[C@@H](CCCCN)C(=O)N[C@@H](CCCNC(=N)N)C(=O)NC(C)(C)C(=O)N[C@@H](CCC(=O)O)C(=O)N[C@@H](CCCNC(=N)N)C(=O)N[C@@H](CCC(=O)O)C(=O)N[C@@H](CCCCN)C(=O)N[C@@H](C)C(=O)N[C@@H](CCC(=O)O)C(=O)N[C@@H](CCCCN)C(=O)N[C@@H](C)C(=O)N[C@@H](C)C(=O)N[C@@H](CCCNC(=N)N)C(=O)N[C@H](C(=O)N[C@@H](CC(C)C)C(=O)N[C@@H](CCC(=O)O)C(=O)N[C@@H](CCCNC(=N)N)C(=O)N[C@H](C(N)=O)C(C)C)[C@@H](C)CC)[C@@H](C)O)C(C)C)C(C)C` [SEQ ID NO: 224, IVLSLDvPTKLK*KKLLKQERKRAibEREKAEKAARILERV-NH2] (H-IVLSLD[dV]PTKLK([AEEA-AEEA-γGlu-C20 diacid])KKLLKQERKR[Aib]EREKAEKAARILERV-NH2; N-terminus assumed), the Emax in assay [1] stood at 52.6%.
Same read-out and setting: the value for `CC[C@H](C)[C@H](N)C(=O)N[C@H](C(=O)N[C@@H](CC(C)C)C(=O)N[C@@H](CO)C(=O)N[C@@H](CC(C)C)C(=O)N[C@@H](CC(=O)O)C(=O)N[C@H](C(=O)N1CCC[C@H]1C(=O)N[C@H](C(=O)NCC(=O)N[C@@H](CC(C)C)C(=O)N[C@@H](CCCCNC(=O)COCCOCCNC(=O)COCCOCCNC(=O)CC[C@H](NC(=O)CCCCCCCCCCCCCCCCC(=O)O)C(=O)O)C(=O)N[C@@H](CCC(N)=O)C(=O)N[C@@H](CCCCN)C(=O)N[C@@H](CC(C)C)C(=O)N[C@@H](CC(C)C)C(=O)N[C@@H](CCCCN)C(=O)N[C@@H](CCC(N)=O)C(=O)N[C@@H](CCC(N)=O)C(=O)N[C@@H](CCCNC(=N)N)C(=O)N[C@@H](CCC(N)=O)C(=O)N[C@@H](CCCNC(=N)N)C(=O)N[C@@H](CCCCN)C(=O)N[C@@H](CCC(=O)O)C(=O)N[C@@H](CCCNC(=N)N)C(=O)N[C@@H](CCC(N)=O)C(=O)N[C@@H](CCC(N)=O)C(=O)N[C@@H](C)C(=O)N[C@@H](CCC(=O)O)C(=O)N[C@@H](CCCCN)C(=O)N[C@@H](CC(N)=O)C(=O)N[C@@H](C)C(=O)N[C@@H](CCCNC(=N)N)C(=O)N[C@H](C(=O)N[C@@H](CC(C)C)C(=O)N[C@@H](C)C(=O)N[C@@H](CCCNC(=N)N)C(=O)N[C@H](C(N)=O)C(C)C)[C@@H](C)CC)[C@@H](C)CC)C(C)C)C(C)C` [compound 16] (H-IVLSLDVPIGLK([AEEA-AEEA-γGlu-C18 diacid])QKLLKQQRQRKERQQAEKNARILARV-NH2) was 0.4%.
`CC[C@H](C)[C@H](N)C(=O)N[C@H](C(=O)N[C@@H](CC(C)C)C(=O)N[C@@H](CO)C(=O)N[C@@H](CC(C)C)C(=O)N[C@@H](CC(=O)O)C(=O)N[C@H](C(=O)N1CCC[C@H]1C(=O)N[C@H](C(=O)N[C@@H](CCCCN)C(=O)N[C@@H](CC(C)C)C(=O)N[C@@H](CCCCNC(=O)COCCOCCNC(=O)COCCOCCNC(=O)CC[C@H](NC(=O)CCCCCCCCCCCCCCCCC(=O)O)C(=O)O)C(=O)N[C@@H](CCC(N)=O)C(=O)N[C@H](C(=O)N[C@@H](CC(C)C)C(=O)N[C@@H](CC(C)C)C(=O)N[C@@H](CCCCN)C(=O)N[C@@H](CCC(N)=O)C(=O)N[C@@H](CCC(=O)O)C(=O)N[C@@H](CCCNC(=N)N)C(=O)N[C@@H](CCC(N)=O)C(=O)N[C@@H](CCCCN)C(=O)NC(C)(C)C(=O)N[C@@H](CCC(N)=O)C(=O)N[C@@H](CCCNC(=N)N)C(=O)N[C@@H](CCC(N)=O)C(=O)N[C@@H](CCCCN)C(=O)N[C@@H](C)C(=O)N[C@@H](CCC(=O)O)C(=O)N[C@@H](CCCCN)C(=O)N[C@@H](CC(N)=O)C(=O)N[C@@H](CCCCN)C(=O)N[C@@H](CCC(N)=O)C(=O)N[C@H](C(=O)N[C@@H](CC(C)C)C(=O)N[C@@H](C)C(=O)N[C@@H](CCC(N)=O)C(=O)N[C@H](C(N)=O)C(C)C)[C@@H](C)CC)[C@@H](C)CC)[C@@H](C)CC)C(C)C)C(C)C` [compound 22] (H-IVLSLDVPIKLK([AEEA-AEEA-γGlu-C18 diacid])QILLKQERQK[Aib]QRQKAEKNKQILAQV-NH2): the EC50 in assay [2] is 0.12 nM. In addition, in assay [1], the EC50 is above 100 nM and the Emax is 1.2%.
For `CCCCCCCCCCCCCCCC(=O)N[C@@H](CCC(=O)NCCCC[C@H](NC(=O)[C@H](CC(C)C)NC(=O)[C@H](CCCCN)NC(=O)[C@@H](NC(=O)[C@@H]1CCCN1C(=O)[C@H](NC(=O)[C@H](CC(=O)O)NC(=O)[C@H](CC(C)C)NC(=O)[C@H](CO)NC(=O)[C@H](CC(C)C)NC(=O)[C@@H](NC(=O)[C@@H](N)[C@@H](C)CC)C(C)C)C(C)C)[C@@H](C)O)C(=O)N[C@@H](CCCCN)C(=O)N[C@@H](CCCCN)C(=O)N[C@@H](CC(C)C)C(=O)N[C@@H](CC(C)C)C(=O)N[C@@H](CCCCN)C(=O)N[C@@H](CCC(N)=O)C(=O)N[C@@H](CCC(=O)O)C(=O)N[C@@H](CCCNC(=N)N)C(=O)N[C@@H](CCCCN)C(=O)N[C@@H](CCCNC(=N)N)C(=O)N[C@@H](CCCCN)C(=O)N[C@@H](CCC(=O)O)C(=O)N[C@@H](CCCNC(=N)N)C(=O)N[C@@H](CCC(=O)O)C(=O)N[C@@H](CCCCN)C(=O)N[C@@H](C)C(=O)N[C@@H](CCC(=O)O)C(=O)N[C@@H](CCCCN)C(=O)N[C@@H](CC(N)=O)C(=O)N[C@@H](C)C(=O)N[C@@H](CCCNC(=N)N)C(=O)N[C@H](C(=O)N[C@@H](CC(C)C)C(=O)N[C@@H](CCC(=O)O)C(=O)N[C@@H](CCCNC(=N)N)C(=O)N[C@H](C(N)=O)C(C)C)[C@@H](C)CC)C(=O)O` [compound 25] (H-IVLSLD[dV]PTKLK([γGlu-Palmitoyl])KKLLKQERKRKEREKAEKNARILERV-NH2), in that order: 0.09 nM, above 100 nM and 0.1%.
Consider `CCCCCCCCCCCCCCCC(=O)N[C@@H](CCC(=O)NCCCC[C@H](NC(=O)[C@H](CC(C)C)NC(=O)[C@H](CCCCN)NC(=O)[C@@H](NC(=O)[C@@H]1CCCN1C(=O)[C@H](NC(=O)[C@H](CC(=O)O)NC(=O)[C@H](CC(C)C)NC(=O)[C@H](CO)NC(=O)[C@H](CC(C)C)NC(=O)[C@@H](NC(=O)[C@@H](N)[C@@H](C)CC)C(C)C)C(C)C)[C@@H](C)O)C(=O)N[C@@H](CCCCN)C(=O)N[C@@H](CCCCN)C(=O)N[C@@H](CC(C)C)C(=O)N[C@@H](CC(C)C)C(=O)N[C@@H](CCCCN)C(=O)N[C@@H](CCC(N)=O)C(=O)N[C@@H](CCC(=O)O)C(=O)N[C@@H](CCCNC(=N)N)C(=O)N[C@@H](CCCCN)C(=O)N[C@@H](CCCNC(=N)N)C(=O)N[C@@H](CCCCN)C(=O)N[C@@H](CCC(=O)O)C(=O)N[C@@H](CCCNC(=N)N)C(=O)N[C@@H](CCC(=O)O)C(=O)NC(C)(C)C(=O)N[C@@H](C)C(=O)N[C@@H](CCC(=O)O)C(=O)N[C@@H](CCCCN)C(=O)N[C@@H](CC(N)=O)C(=O)N[C@@H](C)C(=O)N[C@@H](CCCNC(=N)N)C(=O)N[C@H](C(=O)N[C@@H](CC(C)C)C(=O)N[C@@H](CCC(=O)O)C(=O)N[C@@H](CCCNC(=N)N)C(=O)N[C@H](C(N)=O)C(C)C)[C@@H](C)CC)C(=O)O` [compound 26] (H-IVLSLD[dV]PTKLK([γGlu-Palmitoyl])KKLLKQERKRKERE[Aib]AEKNARILERV-NH2; N-terminus assumed), for which the EC50 in assay [2] was 0.01 nM. Besides, in assay [1], the EC50 was above 100 nM and the Emax was found to be 0.6%.
